One block for each compound: values may come before it. Activity calls are given as the source filed them. No cut-off for these calls is given here.
Tests used:
786-0 [1] = assay: Metal chelating activity assessed as Fe2+ chelation in human 786-0 cells assessed as intracellular ferrous ion level at 100 uM by FerroOrange fluorescent probe based assay; assay type: cell-based
[2] = Metal chelating activity assessed as Fe2+ chelation assessed as absorbance peak at 430 nm by UV-vis spectroscopy; details: dose 1.0 µM
SK-HEP1 [3] = assay: Inhibition of RSL3 induced lipid-ROS accumulation in human SK-HEP1 cells at 1 uM incubated for 0.5 hrs by C11-BODIPY 581/591 staining coupled with flow cytometry analysis; assay type: functional, cell-based
[4] = Metabolic stability in rat plasma assessed as half life at 1 uM by LC-MS/MS analysis; assay type: ADME, cell-free
786-0 [5] = assay: Inhibition of RSL3-induced ferroptosis in human 786-0 cells assessed as cell viability incubated for 24 hrs by CellTiter-LumiTM assay; assay type: functional, cell-based; details: 786-0, 24 h
786-0 [6] = assay: Effect on erastin-induced decrease in GSH level in human 786-0 cells at 1 uM incubated for 10 hrs by Total intracellular GSH assay; assay type: functional, cell-based
786-0 [7] = assay: Inhibition of STS induced apoptosis in human 786-0 cells assessed as cell viability at 1 uM incubated for 24 hrs by CellTiter-LumiTM assay; assay type: functional, cell-based
786-0 [8] = assay: Effect on FTH1 expression in human 786-0 cells in presence of 0.25 uM RSL3 at 1 uM incubated for 2.5 hrs by Western blot analysis; assay type: functional, cell-based
[9] = Microsomal stability in rat liver microsomes assessed as hepatic extraction ratio at 0.1 uM by LC-MS/MS analysis; assay type: ADME, Microsome; details: read-out: ERH
Mus musculus [10] = assay: Anti-ferroptotic activity in ConA-induced C57 mouse liver injury model assessed as reduction in AST levels in serum at 10 mg/kg, ip pre-treated 1 day followed by challenged with ConA measured after 24 hrs; assay type: functional, organism-based
Mus musculus [11] = assay: Anti-ferroptotic activity in ConA-induced C57 mouse liver injury model assessed as decrease in acute liver injury at 10 mg/kg, ip pre-administered one day followed by treated with ConA measured after 24 hrs by HE staining based analysis; assay type: functional, organism-based; details: time 48.0 hrs
[12] = Inhibition of RSL3 induced ferroptosis in H9c2 cells assessed as cell viability incubated for 24 hrs by CellTiter-LumiTM assay; assay type: functional, cell-based; details: Rattus norvegicus, H9c2, 24 h
786-0 [13] = assay: Inhibition of RSL3 induced lipid-ROS accumulation in human 786-0 cells incubated for 2.5 hrs by C11-BODIPY 581/591 staining coupled with flow cytometry analysis; assay type: functional, cell-based; details: dose 0.1-1 µM
[14] = Antioxidant activity assessed as free radical scavenging activity incubated for 30 mins in dark by DPPH assay relative to control; assay type: functional
786-0 [15] = assay: Effect on IRP1 expression in human 786-0 cells at 1 uM incubated for 2.5 hrs by western blot analysis; assay type: functional, cell-based
Mus musculus [16] = assay: Anti-ferroptotic activity in ConA-induced C57 mouse acute liver injury model assessed as assessed as reduction in 4-HNE accumulation in liver tissue at 10 mg/kg, ip pre-administered one day followed by treated with ConA measured after 24 hrs by 4-HNE staining based analysis; assay type: functional, organism-based; details: time 48.0 hrs
HT-1080 = assay: Anti-ferroptotic activity in human GPX4 knockout HT-1080 cells assessed as cell viability at 1 uM incubated for 24 hrs by CellTiter-LumiTM plus luminescent cell viability assay; assay type: functional, cell-based
786-0 [17] = assay: Effect on IRP1 expression in human 786-0 cells in presence of 0.25 uM RSL3 at 1 uM incubated for 2.5 hrs by Western blot analysis; assay type: functional, cell-based
Mus musculus [18] = assay: Anti-ferroptotic activity in ConA-induced C57 mouse liver injury model assessed as reduction in ALT levels in serum at 10 mg/kg, ip pre-treated 1 day followed by treated with ConA measured after 24 hrs; assay type: functional, organism-based; details: time 2.0 day
[19] = Metabolic stability in human plasma assessed as half life at 1 uM by LC-MS/MS analysis; assay type: ADME, cell-free
SK-HEP1 [20] = assay: Inhibition of RSL3 induced lipid-ROS accumulation in human SK-HEP1 cells at 1 uM incubated for 2.5 hrs by C11-BODIPY 581/591 staining coupled with flow cytometry analysis; assay type: functional, cell-based
786-0 [21] = assay: Effect on FTL expression in human 786-0 cells in presence of 0.25 uM RSL3 at 1 uM incubated for 2.5 hrs by Western blot analysis; assay type: functional, cell-based
[22] = Inhibition of erastin induced ferroptosis in human 786-0 cells assessed as cell viability incubated for 24 hrs by CellTiter-LumiTM assay; assay type: functional, cell-based; details: 786-0, 24 h
786-0 [23] = assay: Effect on SLC7A11 expression in human 786-0 cells at 1 uM incubated for 2.5 hrs by Western blot analysis; assay type: functional, cell-based
[24] = Inhibition of RSL3 induced ferroptosis in human SK-HEP1 cells assessed as cell viability incubated for 24 hrs by CellTiter-LumiTM assay; assay type: functional, cell-based; details: SK-HEP1, 24 h
786-0 [25] = assay: Cytotoxicity against human 786-0 cells assessed as cell viability incubated for 24 hrs by CellTiter-LumiTM assay; assay type: functional
786-0 [26] = assay: Effect on FTH1 expression in human 786-0 cells at 1 uM incubated for 2.5 hrs by western blot analysis; assay type: functional, cell-based
Mus musculus [27] = assay: Anti-ferroptotic activity in ConA-induced C57 mouse acute liver injury model assessed as assessed as reduction in PTGS2 mRNA levels in liver tissue at 10 mg/kg, ip pre-administered one day followed by treated with ConA measured after 24 hrs by qRT-PCR analysis; assay type: functional, organism-based; details: time 48.0 hrs
786-0 [28] = assay: Effect on TFRC expression in human 786-0 cells in presence of 0.25 uM RSL3 at 1 uM incubated for 2.5 hrs by Western blot analysis; assay type: functional, cell-based
786-0 [29] = assay: Inhibition of RSL3 induced ferroptosis in human 786-0 cells assessed as cell viability in presence of iFSP1 at 1 uM measured after 24 hrs by CellTiter-LumiTM assay; assay type: functional, cell-based
786-0 [30] = assay: Effect on TFRC expression in human 786-0 cells at 1 uM incubated for 2.5 hrs by Western blot analysis; assay type: functional, cell-based
[31] = Microsomal stability in human liver microsomes assessed as hepatic extraction ratio at 0.1 uM by LC-MS/MS analysis; assay type: ADME, Microsome; details: read-out: ERH
[32] = Inhibition of RSL3 induced ferroptosis in human HT-1080 cells assessed as cell viability incubated for 24 hrs by CellTiter-LumiTM assay; assay type: functional, cell-based; details: HT-1080, 24 h
786-0 [33] = assay: Effect on ACSL4 expression in human 786-0 cells at 1 uM incubated for 2.5 hrs by Western blot analysis; assay type: functional, cell-based
786-0 [34] = assay: Effect on FTL expression in human 786-0 cells at 1 uM incubated for 2.5 hrs by western blot analysis; assay type: functional, cell-based
786-0 [35] = assay: Inhibition of RSL3-induced ferroptosis in human 786-0 cells assessed as cell viability by assessing cell morphology incubated for 24 hrs by CellTiter-LumiTM plus luminescent cell viability assay; assay type: functional, cell-based; details: 786-0, 24 h
[36] = Microsomal stability in human liver microsomes assessed as half life at 0.1 uM by LC-MS/MS analysis; assay type: ADME, Microsome; details: microsomes, 0.1 µM
[37] = Suppression of autoxidation of liposomes egg ( unknown origin) phosphatidylcholine lipids as substrate at 0.1 to 2.5 uM incubated for 5 min by C11-BODIPY 581/591 dye based fluorescent assay; assay type: functional; details: dose 0.1-2.5 µM
Mus musculus [38] = assay: Anti-ferroptotic activity in ConA-induced C57 mouse acute liver injury model assessed as reduction in malondialdehyde levels at 10 mg/kg, ip pre-administered one day followed by treated with ConA measured after 24 hrs by MDA kit assay; assay type: functional, organism-based; details: time 48.0 hrs
[39] = Microsomal stability in rat liver microsomes assessed as half life at 0.1 uM by LC-MS/MS analysis; assay type: ADME, Microsome; details: microsomes, 0.1 µM
786-0 [40] = assay: Inhibition of RSL3 induced lipid-ROS accumulation in human 786-0 cells assessed as fast elimination at 1 uM measured after 0.25 to 2.5 hrs by C11-BODIPY 581/591 staining coupled with flow cytometry analysis; assay type: functional, cell-based; details: time 0.25-2.5 hrs
[41] = Inhibition of RSL3 induced ferroptosis in human MHCC97H cells assessed as cell viability incubated for 24 hrs by CellTiter-LumiTM assay; assay type: functional, cell-based
786-0 [42] = assay: Effect on GPX4 expression in human 786-0 cells at 1 uM incubated for 2.5 hrs by Western blot analysis; assay type: functional, cell-based
786-0 [43] = assay: Metal chelating activity assessed as Fe2+ chelation in human 786-0 cells assessed as intracellular ferrous ion level at 1 uM by FerroOrange fluorescent probe based assay; assay type: cell-based
786-0 [44] = assay: Inhibition of H2O2 induced necrosis in human 786-0 cells assessed as cell viability at 1 uM incubated for 24 hrs by CellTiter-LumiTM assay; assay type: functional, cell-based

Activity [2]: Active
SMILES: CC(=O)N(O)CCCCCNC(=O)CCC(=O)N(O)CCCCCNC(=O)CCC(=O)N(O)CCCCCN
Activity (786-0 [1]): Active

half-life at 1 µM [4]: 4.97 h
EC50 (786-0 [5]): 80 nM
hepatic extraction ratio at 0.1 µM [9]: 0.993
half-life at 1 µM [19]: 23.9 h
hepatic extraction ratio at 0.1 µM [31]: 0.99
EC50 (786-0 [35]): 84 nM
t1/2 [36]: 4.02 min
t1/2 [39]: 1.66 min
SMILES: COc1ccc(COc2c(OC)cccc2C2N(c3ccccc3)N=C(C(C)=O)N2c2ccc(N(C)C)cc2)cc1 (stereo not given)
inhibition (SK-HEP1 [3]): Active
Activity (786-0 [6]): inactive
inhibition (786-0 [7]): inactive
Activity (786-0 [8]): inactive
Activity (Mus musculus [10]): Active
Activity (Mus musculus [11]): Active
EC50 [12]: 142 nM
inhibition (786-0 [13]): Dose-dependent-effect
Activity [14]: Active
Activity (786-0 [15]): No effect
Activity (Mus musculus [16]): Active
Activity (HT-1080): Active
Activity (786-0 [17]): inactive
Activity (Mus musculus [18]): Active
inhibition (SK-HEP1 [20]): Active
Activity (786-0 [21]): inactive
EC50 [22]: 54 nM
Activity (786-0 [23]): No effect
EC50 [24]: 164 nM
CC50 (786-0 [25]): > 10000 nM
Activity (786-0 [26]): No effect
Activity (Mus musculus [27]): Active
Activity (786-0 [28]): inactive
inhibition (786-0 [29]): Active
Activity (786-0 [30]): No effect
EC50 [32]: 74 nM
Activity (786-0 [33]): No effect
Activity (786-0 [34]): No effect
Activity [37]: Dose-dependent-effect
Activity (Mus musculus [38]): Active
inhibition (786-0 [40]): Active; Eliminated As Fast As Fer-1
EC50 [41]: 349 nM
Activity (786-0 [42]): No effect
Activity (786-0 [43]): inactive
inhibition (786-0 [44]): inactive

Reference: ChEMBL document CHEMBL6120996, “Discovery and optimization of 1,2,4-triazole derivatives as novel ferroptosis inhibitors” (Eur J Med Chem, 2025)
